Laboratory results: the NIST ThermoML archive (doi:10.1016/j.tca.2013.05.022)
± gives the expanded uncertainty stated by the source.

What was measured:
[1] = relative permittivity at zero frequency (dimensionless); details: Liquid, Parallel plate capacitor
[2] = relative permittivity at zero frequency (dimensionless); φn = volume fraction of the nth substance listed; details: Liquid, Parallel plate capacitor

CCO [ethanol]
[1], 101 kPa
Details	relative permittivity at zero frequency
303 K	24.26 ± 0.97
313 K	23.85 ± 0.95
323 K	23.25 ± 0.95

CCO [ethanol] + Cc1ccccc1
[2], 101 kPa, φ1 = 1
Details	relative permittivity at zero frequency
303 K	24.26 ± 0.97
313 K	23.85 ± 0.95
323 K	23.25 ± 0.95

CO [methanol]
[1], 101 kPa
Details	relative permittivity at zero frequency
303 K	33.19 ± 1.3
313 K	32.35 ± 1.3
323 K	31.98 ± 1.3

CO [methanol] + Cc1ccccc1
[2], 101 kPa, φ1 = 1
Details	relative permittivity at zero frequency
303 K	33.19 ± 1.3
313 K	32.35 ± 1.3
323 K	31.98 ± 1.3

CCCO [propan-1-ol]
[1], 101 kPa
Details	relative permittivity at zero frequency
303 K	19.95 ± 0.95
313 K	18.65 ± 0.95
323 K	17.82 ± 0.95

CCCO [propan-1-ol] + Cc1ccccc1
[2], 101 kPa, φ1 = 1
Details	relative permittivity at zero frequency
303 K	19.95 ± 0.95
313 K	18.65 ± 0.95
323 K	17.82 ± 0.95

CC(C)O [propan-2-ol]
[1], 307116 kPa
Details	relative permittivity at zero frequency
303 K	18.25 ± 0.95
313 K	17.75 ± 0.95
323 K	16.57 ± 0.95

CC(C)O [propan-2-ol] + Cc1ccccc1
relative permittivity at zero frequency, [2], 307116 kPa
Details	φ1 = 0.1	φ1 = 0.2	φ1 = 0.3	φ1 = 0.4	φ1 = 0.5	φ1 = 0.6	φ1 = 0.7	φ1 = 0.8	φ1 = 0.9	φ1 = 1
303 K	3.55 ± 0.95	4.83 ± 0.95	5.98 ± 0.95	6.85 ± 0.95	8.06 ± 0.95	10.1 ± 0.95	12.09 ± 0.95	14.27 ± 0.95	16.36 ± 0.95	18.25 ± 0.95
313 K	3.12 ± 0.95	4.48 ± 0.95	5.55 ± 0.95	6.45 ± 0.95	7.75 ± 0.95	9.73 ± 0.95	11.75 ± 0.95	13.65 ± 0.95	15.98 ± 0.95	17.75 ± 0.95
323 K	3 ± 0.95	4.12 ± 0.95	5.13 ± 0.95	6.15 ± 0.95	7.46 ± 0.95	9.45 ± 0.95	11.24 ± 0.95	13.34 ± 0.95	15.35 ± 0.95	16.57 ± 0.95

Cc1ccccc1 [toluene] + CCCO
relative permittivity at zero frequency, [2], 101 kPa
Details	φ2 = 0.1	φ2 = 0.2	φ2 = 0.3	φ2 = 0.4	φ2 = 0.5	φ2 = 0.6	φ2 = 0.7	φ2 = 0.8	φ2 = 0.9
303 K	3.28 ± 0.95	4.67 ± 0.95	6.29 ± 0.95	7.59 ± 0.95	8.79 ± 0.95	11.44 ± 0.95	13.76 ± 0.95	15.84 ± 0.95	18.08 ± 0.95
313 K	3.17 ± 0.95	4.59 ± 0.95	6.18 ± 0.95	7.23 ± 0.95	8.17 ± 0.95	11.18 ± 0.95	13.37 ± 0.95	15.59 ± 0.95	17.87 ± 0.95
323 K	2.98 ± 0.95	4.42 ± 0.95	5.95 ± 0.95	6.89 ± 0.95	7.88 ± 0.95	10.89 ± 0.95	13.18 ± 0.95	15.29 ± 0.95	17.24 ± 0.95

Cc1ccccc1 [toluene] + CCO
relative permittivity at zero frequency, [2], 101 kPa
Details	φ2 = 0.1	φ2 = 0.2	φ2 = 0.3	φ2 = 0.4	φ2 = 0.5	φ2 = 0.6	φ2 = 0.7	φ2 = 0.8	φ2 = 0.9
303 K	3.97 ± 0.95	5.64 ± 0.95	7.43 ± 0.95	8.29 ± 0.95	10.1 ± 0.95	12.53 ± 0.95	15.27 ± 0.95	18.07 ± 0.95	21.14 ± 0.95
313 K	3.42 ± 0.95	5.27 ± 0.95	6.34 ± 0.95	7.98 ± 0.95	9.7 ± 0.95	12.26 ± 0.95	14.78 ± 0.95	17.72 ± 0.95	20.78 ± 0.95
323 K	2.95 ± 0.95	4.91 ± 0.95	6.14 ± 0.95	7.87 ± 0.95	9.2 ± 0.95	12.07 ± 0.95	14.54 ± 0.95	17.28 ± 0.95	20.14 ± 0.95

Cc1ccccc1 [toluene] + CO
relative permittivity at zero frequency, [2], 101 kPa
Details	φ2 = 0.1	φ2 = 0.2	φ2 = 0.3	φ2 = 0.4	φ2 = 0.5	φ2 = 0.6	φ2 = 0.7	φ2 = 0.8	φ2 = 0.9
303 K	5.82 ± 0.95	7.85 ± 0.95	10.56 ± 0.95	12.89 ± 0.95	15.86 ± 0.95	19.25 ± 0.95	22.54 ± 0.95	25.91 ± 1	29.34 ± 1.2
313 K	5.03 ± 0.95	7.57 ± 0.95	10.29 ± 0.95	12.66 ± 0.95	15.11 ± 0.95	18.71 ± 0.95	22.17 ± 0.95	25.38 ± 1	28.83 ± 1.1
323 K	4.87 ± 0.95	6.92 ± 0.95	9.82 ± 0.95	12.14 ± 0.95	14.72 ± 0.95	18.27 ± 0.95	21.67 ± 0.95	24.95 ± 1	28.42 ± 1.1
